Test results from patent publication US12545706B2, “Pharmaceutical composition for preventing or treating Behcet's disease and rheumatoid arthritis, containing peptide or mixture thereof as active ingredient” (AJOU UNIVERSITY INDUSTRY-ACADEMIC COOPERATION FOUNDATION, priority 2019, dated 2026).
Where a SMILES comes first, the peptide text is derived from it.

Tests used:
[1] = system: mouse model with collagen-induced arthritis; assay: Severity of arthritis in mouse model with collagen-induced arthritis; assay type: in vivo
Protocol: To prepare a mouse model with rheumatoid arthritis, subcutaneous injection (first immunization) was performed on the tail of a group of 8-week-old male ICR normal mice (average weight: 20 g) injected with 50 μg of a mixture obtained by mixing type II collagen with Complete Freund's adjuvant (CFA) and paraffin oil in the same amount. Two weeks later, the same substance was subcutaneously injected into the tail in the same manner to prepare an animal model with rheumatoid arthritis.
In the same manner as in Example 2, the mixture of P1, P2 and P4 peptides (P124) prepared in Example 1 was administered to the skin of mice as an external skin preparation.
In addition, the peptide mixture (P124) was treated as an external skin preparation once a day for 10 consecutive days, the arthritis treatment effect was checked after 5 weeks, and the results were shown in FIG. 5.

[2] = system: CD4+CD25+ cells, CD4+CD25+FoxP3+ cells, IL-17+ cells; assay: Flow cytometry (FACS) of cells isolated from treated arthritis mouse model; assay type: in vivo; design: IL-17: unit not given here
[3] = Retention of fluorescently labeled peptide in abdominal cavity (FACS of intraperitoneal macrophages); assay type: in vivo, mouse; conditions: for stability in vivo: conclusion from FIG. 9 and FIG. 10
Protocol: After intraperitoneal injection of the fluorescently labeled peptide P4 into mice, intraperitoneal macrophages were isolated, and the frequency of fluorescently labeled macrophages was analyzed by FACS to measure the retention time of the peptides in the abdominal cavity, which was shown in FIG. 9.
In addition, the P1, P2, and P4 peptides were labeled with each different fluorescence, and the three types were mixed and administered to normal mice.

[4] = system: mouse animal model with Behcet's disease (HSV type 1 infected ICR mice); assay: Therapeutic effect on skin ulcers and skin inflammation in mouse animal model with Behcet's disease; assay type: in vivo; conditions: peptides administered respectively; symptoms visually checked; FIG. 1
Protocol: Male ICR mice (4-5 weeks of age) were infected with HSV type 1 (1×10^6, 20 μL) grown in Vero cells as previously reported (S. Sohn et al., Eur J Dermatol, 8 (1): 21-23, 1998). 10 days after the first virus inoculation, the mice were infected twice by inoculating the virus again and monitored for 32 weeks. Animals were treated according to the guidelines provided by Institutional Animal Care and Use Committee (IACUC) of School of Medicine at Ajou University. The study protocol was approved by IACUC (Approval No.: AMC-2016-0010).
Symptoms include skin ulcers, skin pustule, genital ulcers, erythema, mouth ulcers, ear inflammation, arthritis, red eyes (left and right), decreased visual acuity (left and right), weight loss, and facial swelling. Mouth ulcers, genital ulcers, skin ulcers, and eye symptoms were classified as major symptoms while the other symptoms were mild.
Mice showing one or more major symptoms with one mild symptom were considered as BD mice, the score for each symptom was calculated as 1, and the sum of the scores was used to determine the severity of BD. When symptoms disappeared or the size of the lesion was reduced by 20% or more, it was classified as symptom improved state. The disease severity score for BD was calculated based on the BD Activity Index as described in the BD Activity Form (www.behcet.ws/pdf/BehcetsDiseaseActivityForm.pdf). […]

[5] = FACS frequency, Table 1, in % (unit assumed)
[6] = intraperitoneal injection, intraperitoneal macrophages, FIG. 9

Compound: CN(Cc1cnc2nc(N)nc(N)c2n1)c1ccc(C(=O)N[C@@H](CCC(=O)O)C(=O)O)cc1 [Methotrexate]
- duration of the effect on severity score for arthritis ([1]; FIG. 4, 10 weeks follow-up): effect decreased after 7 weeks
- severity score for arthritis ([1]; external skin preparation, compared to PBS control group, followed 10 weeks, FIG. 4): reduction in the severity score for arthritis was also shown
- IL-17 ([2]; FACS frequency, Table 1): 13.15 ± 1.34
- CD4 + CD25+ [2, 5]: 3.7 ± 1.13
- CD4 + CD25 + FoxP3+ [2, 5]: 1.45 ± 0.49
- ROR-gammaT ([2]; FACS, Table 1): 6.2 ± 0.42

Compound: CC[C@H](C)[C@H](NC(=O)[C@@H](N)CC(C)C)C(=O)N[C@@H](CS)C(=O)N1CCC[C@H]1C(=O)N[C@@H](CCC(=O)O)C(=O)N[C@@H](CCCCN)C(=O)N[C@@H](Cc1ccc(O)cc1)C(=O)N[C@@H](CS)C(=O)N[C@@H](CC(N)=O)C(=O)N[C@@H](CCCCN)C(=O)N[C@H](C(=O)N[C@@H](Cc1c[nH]cn1)C(=O)N[C@H](C(=O)O)[C@@H](C)O)C(C)C [P1, LICPEKYCNKVHT] (H-LICPEKYCNKVHT-OH; N-terminus and C-terminus assumed)
- stability in vivo [3]: stably maintained

Compound: CC(C)[C@H](NC(=O)[C@H](CCCCN)NC(=O)[C@H](CC(N)=O)NC(=O)[C@H](CS)NC(=O)[C@@H](N)Cc1ccc(O)cc1)C(=O)N[C@@H](Cc1c[nH]cn1)C(=O)N[C@H](C(=O)N[C@@H](CS)C(=O)N[C@@H](CCCNC(=N)N)C(=O)N[C@@H](CC(N)=O)C(=O)NCC(=O)O)[C@@H](C)O [P2, YCNKVHTCRNG] (H-YCNKVHTCRNG-OH; N-terminus and C-terminus assumed)
- stability in vivo [3]: stably maintained

Compound: CC[C@H](C)[C@H](NC(=O)[C@H](CC(N)=O)NC(=O)[C@H](CCC(=O)O)NC(=O)CNC(=O)[C@H](CC(N)=O)NC(=O)[C@H](CCCNC(=N)N)NC(=O)[C@H](CS)NC(=O)[C@@H](NC(=O)[C@@H](N)Cc1c[nH]cn1)[C@@H](C)O)C(=O)N[C@@H](CS)C(=O)N[C@@H](Cc1ccccc1)C(=O)O [P4, HTCRNGENICF] (H-HTCRNGENICF-OH; N-terminus and C-terminus assumed)
- stability in vivo [3]: stably maintained
- time at which frequency of cells including the peptide was the highest [3, 6]: 24 h
- time up to which frequency of cells including the peptide was maintained [3, 6]: up to 72 hours

Compound: ENICFKRFYEGNLLGKRYPRGCA [P5]
- skin ulcers and skin inflammation [4]: alleviated
